# According to publication PMC12396409, “Screening and hit evaluation of a microbial metabolite library against the pathogenic Plasmodium falciparum and Toxoplasma gondii parasites” (International Journal for Parasitology: Drugs and Drug …, 2025):
# Read-outs that look alike come from different tables or passages of the source.
# How the values were obtained:
# [1] = test system: T. gondii RH strain (RH-Tub-eYFP) tachyzoites; test: microbe, parasite or virus in culture; format: cell-based, Toxoplasma gondii; conditions: 72 h; for percent parasite growth at 2 µg/mL: Toxoplasma gondii
# [2] = test system: P. falciparum 3D7 parasites; test: P. falciparum growth inhibition assay, 1-cycle (72 h treatment), SYBR DNA staining (library screen at 2 μg/mL and dose-response); format: cell-based, Plasmodium falciparum; conditions: for activity at 2 µg/mL: Plasmodium falciparum
# [3] = test system: P. falciparum 3D7 parasites; test: P. falciparum growth inhibition assay, 2-cycle (120 h treatment), delayed-death screen and dose-response; format: cell-based, Plasmodium falciparum; conditions: for activity at 2 µg/mL: Plasmodium falciparum
# [4] = library screen at 2 μg/mL, % growth, replicate 1
# [5] = library screen at 2 μg/mL, % growth, replicate 2
# [6] = library screen at 2 μg/mL, 72 h, % growth, replicate 1
# [7] = library screen at 2 μg/mL, 72 h, % growth, replicate 2
# [8] = library screen at 2 μg/mL, 120 h, % growth, replicate 1
# [9] = library screen at 2 μg/mL, 120 h, % growth, replicate 2
# [10] = T. gondii, screen at 2 μg/mL, replicate 1, read-out: Tg_72h_%Growth_Rep1
# [11] = T. gondii, screen at 2 μg/mL, replicate 2, read-out: Tg_72h_%Growth_Rep2
# [12] = T. gondii, screen at 2 μg/mL, replicate 1
# [13] = T. gondii, screen at 2 μg/mL, replicate 2
# [14] = P. falciparum, 72 h, screen at 2 μg/mL, replicate 1
# [15] = P. falciparum, 72 h, screen at 2 μg/mL, replicate 2
# [16] = P. falciparum, 120 h, screen at 2 μg/mL, replicate 1
# [17] = P. falciparum, 120 h, screen at 2 μg/mL, replicate 2
smiles,measurement,setting,value
CCCC[C@@H](C)[C@@H](OC(=O)C[C@@H](CC(=O)O)C(=O)O)[C@H](C[C@@H](C)CCCCCC[C@@H](O)C[C@H](O)[C@H](C)N)OC(=O)C[C@@H](CC(=O)O)C(=O)O [Fumonisin B2],Tg_72h_%Growth_Rep1,[1]; [4],118.32%
same,Tg_72h_%Growth_Rep2,[1]; [5],95.97%
same,Pf_72h_%Growth_Rep1,[2]; [6],86.29%
same,Pf_72h_%Growth_Rep2,[2]; [7],114.27%
same,Pf_120h_%Growth_Rep1,[3]; [8],88.54%
same,Pf_120h_%Growth_Rep2,[3]; [9],108.75%
O=c1[nH]c2ccccc2c(-c2ccccc2)c1O [Viridicatin],percent parasite growth at 2 µg/mL,[1]; [10],145%
same,percent parasite growth at 2 µg/mL,[1]; [11],80.5%
same,activity at 2 µg/mL,"[2]; 3D7, P. falciparum, 72 h, screen at 2 μg/mL, replicate 1, read-out: Pf_72h_%Growth_Rep1",91.8%
same,activity at 2 µg/mL,"[2]; 3D7, P. falciparum, 72 h, screen at 2 μg/mL, replicate 2, read-out: Pf_72h_%Growth_Rep2",125%
same,activity at 2 µg/mL,"[3]; 3D7, P. falciparum, 120 h, screen at 2 μg/mL, replicate 1, read-out: Pf_120h_%Growth_Rep1",106%
same,activity at 2 µg/mL,"[3]; 3D7, P. falciparum, 120 h, screen at 2 μg/mL, replicate 2, read-out: Pf_120h_%Growth_Rep2",104%
CO[C@H]1[C@@H](O)[C@@H](C)O[C@H](O[C@H]2[C@H](Oc3cccc4c(O)c5c(=O)oc6ccc(C)c7c(=O)oc(c34)c5c67)O[C@H](C)[C@H](O)[C@@H]2O)[C@@H]1O [Chartreusin],percent parasite growth at 2 µg/mL,[1]; [10],85.7%
same,percent parasite growth at 2 µg/mL,[1]; [11],97.4%
same,activity at 2 µg/mL,"[2]; 3D7, 72 h, P. falciparum, 72 h, screen at 2 μg/mL, replicate 1, read-out: Pf_72h_%Growth_Rep1",101%
same,activity at 2 µg/mL,"[2]; 3D7, 72 h, P. falciparum, 72 h, screen at 2 μg/mL, replicate 2, read-out: Pf_72h_%Growth_Rep2",88.7%
same,activity at 2 µg/mL,"[3]; 3D7, 120 h, P. falciparum, 120 h, screen at 2 μg/mL, replicate 1, read-out: Pf_120h_%Growth_Rep1",144%
same,activity at 2 µg/mL,"[3]; 3D7, 120 h, P. falciparum, 120 h, screen at 2 μg/mL, replicate 2, read-out: Pf_120h_%Growth_Rep2",96.8%
CN(C)[C@@H]1C(O)=C(C(N)=O)C(=O)[C@@]2(O)C(O)=C3C(=O)c4c(O)cccc4[C@@](C)(O)[C@H]3[C@H](O)[C@@H]12 [BIA-O1336],Tg_72h_%Growth_Rep1,"[1]; T. gondii, parasite screen at 2 μg/mL, % growth, replicate 1",105.05%
same,Tg_72h_%Growth_Rep2,"[1]; T. gondii, parasite screen at 2 μg/mL, % growth, replicate 2",93.22%
same,Pf_72h_%Growth_Rep1,"[2]; P. falciparum 3D7, 72 h, parasite screen at 2 μg/mL, % growth, replicate 1",45.04%
same,Pf_72h_%Growth_Rep2,"[2]; P. falciparum 3D7, 72 h, parasite screen at 2 μg/mL, % growth, replicate 2",49.67%
same,Pf_120h_%Growth_Rep1,"[3]; P. falciparum 3D7, 120 h, parasite screen at 2 μg/mL, % growth, replicate 1",15.40%
same,Pf_120h_%Growth_Rep2,"[3]; P. falciparum 3D7, 120 h, parasite screen at 2 μg/mL, % growth, replicate 2",14.90%
"C[C@H]1CCC[C@@H](O)CCCCCc2cc(O)cc(O)c2C(=O)O1 [Zearalanol, beta-]",Tg_72h_%Growth_Rep1,[1]; [12],150.26%
same,Tg_72h_%Growth_Rep2,[1]; [13],92.47%
same,Pf_72h_%Growth_Rep1,[2]; [14],81.97%
same,Pf_72h_%Growth_Rep2,[2]; [15],86.14%
same,Pf_120h_%Growth_Rep1,[3]; [16],90.97%
same,Pf_120h_%Growth_Rep2,[3]; [17],85.38%
CCCC(=O)N[C@H]1CCOC1=O [Butyryl-L-homoserine lactone],Tg_72h_%Growth_Rep1,[1]; [12],135.04%
same,Tg_72h_%Growth_Rep2,[1]; [13],102.04%
same,Pf_72h_%Growth_Rep1,[2]; [14],70.61%
same,Pf_72h_%Growth_Rep2,[2]; [15],82.94%
same,Pf_120h_%Growth_Rep1,[3]; [16],71.18%
same,Pf_120h_%Growth_Rep2,[3]; [17],93.77%
C=CC(C)(C)C12CC3C(=O)Nc4ccccc4C(=O)N3C1Nc1ccccc12 (stereo not shown) [Aszonalenin],Tg_72h_%Growth_Rep1,[1]; [4],156.81%
same,Tg_72h_%Growth_Rep2,[1]; [5],98.02%
same,Pf_72h_%Growth_Rep1,[2]; [6],81.55%
same,Pf_72h_%Growth_Rep2,[2]; [7],89.57%
same,Pf_120h_%Growth_Rep1,[3]; [8],90.27%
same,Pf_120h_%Growth_Rep2,[3]; [9],94.67%
"CCc1c(Cl)c(O)c(Cl)c(O)c1C(=O)O[C@H]1[C@H](O)[C@H](OC)[C@H](OC/C2=C\C=C\C[C@H](O)/C(C)=C/[C@H](CC)[C@@H](O[C@@H]3OC(C)(C)[C@@H](OC(=O)C(C)C)[C@H](O)[C@@H]3O)/C(C)=C/C(C)=C/C[C@@H]([C@@H](C)O)OC2=O)O[C@@H]1C [fidaxomicin, reference compound]",percent parasite growth at 2 µg/mL,"[1]; library screen at 2 μg/mL, % growth, replicate 1, read-out: Tg_72h_%Growth_Rep1",85.9%
same,percent parasite growth at 2 µg/mL,"[1]; library screen at 2 μg/mL, % growth, replicate 2, read-out: Tg_72h_%Growth_Rep2",92.4%
same,activity at 2 µg/mL,"[2]; 3D7, library screen at 2 μg/mL, 72 h, % growth, replicate 1, read-out: Pf_72h_%Growth_Rep1",3.04%
same,activity at 2 µg/mL,"[2]; 3D7, library screen at 2 μg/mL, 72 h, % growth, replicate 2, read-out: Pf_72h_%Growth_Rep2",-1.42%
same,selectivity for P. falciparum in the screens,"[2]; active against the parasite at 2 μg/mL, no anti-tumour (NS-1) or cytotoxic (fibroblast) activity at 5 μg/mL",selective for P. falciparum
same,activity at 2 µg/mL,"[3]; 3D7, library screen at 2 μg/mL, 120 h, % growth, replicate 1, read-out: Pf_120h_%Growth_Rep1",13.8%
same,activity at 2 µg/mL,"[3]; 3D7, library screen at 2 μg/mL, 120 h, % growth, replicate 2, read-out: Pf_120h_%Growth_Rep2",-3.62%
